# Patent publication US10213413B2 (priority 2014, dated 2019)
# Where two headings read alike, the source gives them in different places.
# Legend:
# N-NTD = target: T1, N-NTD (Human respiratory syncytial virus A, UniProt P03418); assay: Isothermal titration calorimetry; assay type: binding, respiratory syncytial virus (RSV); details: 18° C.; for Kd: 20 mM Tris-HCl pH 8, 150 mM NaCl, 5% Ethanol, 30 μM N-NTD, read-out: Kd (ITC); for ΔH (binding enthalpy, ITC) / −TΔS (entropic contribution, ITC): 1:1 interaction model
# T1 construct: N N-terminal region (N-NTD, residues 31 to 252); made in house; host or cells: E. coli BL21(DE3)
# T1 sequence (P03418 31-252): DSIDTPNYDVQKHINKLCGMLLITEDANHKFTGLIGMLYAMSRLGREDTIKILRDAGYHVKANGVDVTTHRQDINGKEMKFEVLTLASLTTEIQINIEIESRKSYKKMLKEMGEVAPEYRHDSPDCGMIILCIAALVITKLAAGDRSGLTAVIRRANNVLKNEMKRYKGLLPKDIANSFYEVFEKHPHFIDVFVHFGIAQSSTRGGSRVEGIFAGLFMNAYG
# Description: ITC experiments were performed using the high precision VP-ITC system (MicroCal, GE Healthcare) and quantified with the Origin7 software provided by the manufacturer. All molecules were dissolved in 20 mM Tris-HCl, pH 8, 150 mM NaCl, 5% Ethanol and the binding enthalpies were measured by injecting the M76 or M61 solutions at 1.5 mM into calorimetric cell containing 30 μM N-NTD solution. Titrations were performed at 18° C. with 7 μl injections of M76 or M61 ligands every 350s. Heat signals were corrected for the heats of dilution and normalized to the amount of compound injected. Binding stoichiometries, enthalpy values and equilibrium dissociation constants were determined by fitting the corrected data to a 1:1 interaction model using the Origin7 software (OriginLab).
# In parallel, the inventors investigated the properties of binding abilities of the di-substituted M76- and unsubstituted M61 to N-NTD by ITC. The purified N-NTD domain was loaded into the calorimeter cell and titrated with the compounds.
# P-CTD/N-NTD interaction = target: T2, P-CTD/N-NTD interaction (Human respiratory syncytial virus A, UniProt P03418); assay: Surface plasmon resonance competition assay (N-NTD binding to captured GST-P-CTD); set-up: species or system respiratory syncytial virus (RSV); details: 25° C., 20 mM TrisHCl pH 8, 150 mM NaCl, N-NTD 20 μM; read-out: Ki (inhibition of P-CTD/N-NTD interaction, SPR)
# T2 construct: N N-terminal region (N-NTD, residues 31 to 252); made in house; host or cells: E. coli BL21(DE3)
# T2 sequence (P03418 31-252): as above
# Description: The assays were carried out at 25° C. in a buffer 20 mM TrisHCl, pH 8, 150 mM NaCl.
# A goat anti-GST antibody (Biacore GST Capture Kit) was covalently coupled to a CMS sensorchip, using a Biacore 2000 instrument and the Amine Coupling Kit (GE Healthcare), reaching an immobilization density of around 10000 resonance units (RU; 1RU≈1 pg.mm-2). This surface was used to capture tightly GST-fused P-CTD to a density of 1200-1300 RU, or GST (800 RU) as a control. N-NTD (20 μM), alone or mixed and equilibrated for over 2 hours with the different inhibitor candidates (concentration range: 5-750 μM), was then injected over the GST-P-CTD and GST surfaces for one minute at a flow rate of […]. After each injection, the interaction buffer was flowed on the surface until all the N-NTD molecules dissociated (taking advantage of the transient nature of the N-NTD/P-CTD interaction). At the end of the series, the surfaces were regenerated with a 2-min 10 mM glycine-HCl (pH 1.5) wash and two 1-min washes with 0.05% SDS and 20 mM NaOH. The real-time interaction profiles were double referenced using the Scrubber 2.0 software (BioLogic Software), that is both the signals from the reference surface (with GST captured on the anti-GST antibody) and from blank experiments using the compounds alone were subtracted. The steady-state SPR responses (Req) were plotted against the compound concentration C and fitted using the BIAevaluation 4.1 software (GE Healthcare), according to the following equation:
# [formula] where is the concentration of N-NTD (20 μM) and R0 the steady-state SPR response for N-NTD alone, allowing to determine the inhibition constants Ki for each compound. Isothermal Titration Calorimetry
# SPR signals are proportional to the molecular weight of the analytes and therefore, given the small molecular weight of selected compounds, direct binding between N-NTD and BPdC would have too small signals on the used instrument. Instead, the inventors resorted to indirect competition assays to assess the effect of BPdC on the interaction between surface-bound P-CTD and N-NTD. The inventors first characterized by SPR the specific interactions between P-CTD in fusion with GST (GST-P-CTD) and N-NTD. GST-P-CTD was immobilized on an anti-GST antibody surface and serial dilutions of N-NTD were injected. The interaction between the two domains was transient, with a very fast dissociation rate (koff>1 s^−1) and a Kd of 30 μM. Competition experiments were then performed with the BPdC compounds. […] Both compounds carried a specific Cl substituent in ortho on the benzyl ring, but addition of another Cl atom in para position, on M76, somewhat enhanced inhibition. […] The inhibitory properties of the compounds were directly related to their affinities for N-NTD with M72<M61<M68<M81<M76.
# [1] = target: T3, N-NTD (N N-terminal region, residues 31 to 252) (Human respiratory syncytial virus A, UniProt P03418); assay: NMR chemical shift perturbation titration (1H,15N-HSQC), dissociation constants; assay type: binding, respiratory syncytial virus (RSV); details: 50 μM 15N-labeled N-NTD, two-site fast exchange model, 1:1 stoichiometry
# T3 construct: N N-terminal region (N-NTD, residues 31 to 252); made in house; host or cells: E. coli BL21(DE3)
# T3 sequence (P03418 31-252): as above
# Description: N-NTD samples uniformly labeled with stable isotopes for NMR measurements were produced in minimal M9 medium supplemented with 1 g/L ^15NH4Cl and 3 g/L unlabeled or ^13C-glucose. The protocols were adapted from rich medium: an initial preculture of 15 mL in LB medium was used to inoculate a 500 mL M9 culture grown to saturation, and 500 mL of fresh M9 medium were added before induction. Purification was carried out as described above and followed by a final dialysis step to exchange the sample into NMR buffer (20 mM MES pH 6.5, 250 mM NaCl, 1.5 mM TCEP). A U-^13C, ^15N, 70%-^2H labeled N-NTD sample was prepared by starting from a 100 mL preculture in LB medium, used to inoculate 1 L of unlabeled M9. […]
# Chemical shift perturbation (CSP) experiments were carried out with 50 μM U-^15N labeled N-NTD on a 700 MHz Bruker Avance III spectrometer equipped with a TXI probe by adding increasing amounts of M61, M68, M72, M76 and M81 from concentrated stock solutions (25, 10 or 5 mM) in ethanol. […] Dissociation constants were determined for a given residue, assuming a two-site fast exchange model with a 1:1 stoichiometry, by fitting the chemical shift difference (δ−δfree) as a function of molar ratios in Origin 7 software (OriginLab).
# Combined ^1H and ^15N CSPs were calculated from: Δδ^1H^15N=√{square root over ((δ1H−δ1H^free)^2+(δ15N−δ15N^free)^2/100)}. […]
# rHRSV-mCherry = assay type: cell-based, recombinant human RSV; details: 48 h, HEp-2 cells
# Description: (§1) DMSO dilutions in the same range were also used as controls. HEp-2 cells (ATCC number CCL-23) were seeded at 5×10^4 cells per well in 96-well plates the day before. Infection was carried out with 500 pfu of rHRSV-mCherry in MEM without phenol red. 2 h after infection, the medium was changed to MEM with 2% fetal calf serum and without phenol red. Compound dilutions were pre-incubated with viral suspensions for 5 min at 37° C. before addition on cell monolayers in the 96-well plates.
# Fluorescence, expressed in relative fluorescence units, was measured using a spectrofluorimeter (Tecan infinite M200PRO) with excitation and emission wavelengths of 580 and 620 nm, respectively. Non-infected HEp-2 cells were used a standard for fluorescence background level.
# HEp-2 cells = assay: CellTiter-Glo Luminescent cell viability assay (cytotoxicity); assay type: cell-based; details: 48 h
# Description: as §1, with “Compound M76b was solubilized at 10 mM in 100% v/v DMSO and further diluted in water to 1 mM, then serially diluted threefold in minimum essential medium (MEM) without phenol red (Gibco) to a final concentration of 5 nM. DMSO” for “DMSO”, “plates. After treatment with compound M76b in DMSO or with DMSO alone, plates were incubated at 37° C. and 5% CO2 for 48 h.” for “plates.”
# Cytotoxicity was assayed with the CellTiter-Glo Luminescent cell viability assay (Promega) after 48 h of incubation with DMSO alone or threefold dilutions of compound M76 in DMSO from 1 mM to 12 μM.
SMILES,Kd (N-NTD) [µM],"ΔH (binding enthalpy, ITC) (N-NTD) [kcal/mol]","−TΔS (entropic contribution, ITC) (N-NTD) [kcal/mol]",Ki (P-CTD/N-NTD interaction) [µM],Kd [1] [µM],also measured
"O=C(O)c1cc(C(=O)O)n(Cc2ccccc2)n1 [M61, 1-(Benzyl)-pyrazole-3,5-dicarboxylate]",510 ± 170,-6.42 ± 2.42,2.2 ± 1.8,893 ± 86,,
"O=C(O)c1cc(C(=O)O)n(Cc2ccc(Br)cc2)n1 [M68, 1-(4-bromoBenzyl)-pyrazole-3,5-dicarboxylate]",,,,610 ± 82,,
"O=C(O)c1cc(C(=O)O)n(Cc2ccc(F)cc2)n1 [M72, 1-(4-fluoroBenzyl)-pyrazole-3,5-dicarboxylate]",,,,1660 ± 290,680,
"O=C(O)c1cc(C(=O)O)n(Cc2ccc(Cl)cc2Cl)n1 [M76, 1-(2,4-dichloroBenzyl)-pyrazole-3,5-dicarboxylate]",48 ± 8,-11.0 ± 3.6,5.4 ± 3.8,155 ± 25,20,
CC(=O)OCOC(=O)c1cc(C(=O)OCOC(C)=O)n(Cc2ccc(Cl)cc2Cl)n1 [M76b],,,,,,"relative fluorescence (rHRSV-mCherry; 111 μM, relative to control without M76b and DMSO): 40%; relative fluorescence (rHRSV-mCherry; 333 μM, relative to control without M76b and DMSO): less than 20%; relative fluorescence (rHRSV-mCherry; concentrations under 12 μM): above 80%; cell survival (HEp-2 cells; 111 μM): more than 95%; cell survival (HEp-2 cells; 333 μM): 25%"
"O=C(O)c1cc(C(=O)O)n(Cc2ccccc2Cl)n1 [M81, 1-(2-chloroBenzyl)-pyrazole-3,5-dicarboxylate]",,,,247 ± 39,,
